Laboratory results from publication PMC4154066 (Chemical research in toxicology, 2013).
Like-named read-outs stand apart in the source and are kept apart here.

How the values were obtained:
HepG2 cells [1] = assay: Oxygen consumption rate; format: cell-based, Human; conditions: for Relative percentage OCR 30 Sec: HepG2, 30 sec after compound at its MMP IC50; for Relative percentage OCR 30 Sec / Relative percentage OCR 1 h: basal OCR = 100%, mean ± SD; for Relative percentage OCR 1 h: HepG2, 1 h after compound at its MMP IC50
HepG2 cells [2] = assay: cells; format: cell-based, Human; conditions: for Compound potency (IC50) LDH Release 5 h: HepG2, 5 h treatment
HepG2 cells [3] = conditions: HepG2, 40 h; cited from earlier work
[4] = test system: mitochondrial membrane potential in HepG2 cells; assay: qHTS MMP assay, primary screen; format: cell-based, Human; conditions: Homo sapiens
[5] = HepG2, compound at its MMP IC50, 30 sec and 1 h, then FCCP
[6] = HepG2, 1 h treatment, mean ± SD, 3 independent experiments
[7] = mean ± SD, 3 independent experiments
[8] = Homo sapiens, HepG2, 1 h, read-out: Compound potency (IC50) LDH Release 1 h
[9] = Homo sapiens, HepG2, 5 h, read-out: Compound potency (IC50) LDH Release 5 h
[10] = read-out: Compound potency (IC50) LDH Release 1 h, HepG2, 1 h treatment, mean ± SD, 3 independent experiments

| SMILES | Relative percentage OCR 30 Sec (HepG2 cells [1]) [%] | Relative percentage OCR 1 h (HepG2 cells [1]) [%] | also measured |
| --- | --- | --- | --- |
| Oc1ccc(Cl)cc1Cc1cc(Cl)ccc1O [2,2'-Methylenebis-(4-chlorophenol)] | 170.42 ± 33.35 | 168.27 ± 1.85 |  |
| O=c1c(O)c(-c2ccc(O)cc2)oc2cc(O)cc(O)c12 [Kaempferol] | 118.63 ± 4.29 | 138.85 ± 1.28 | Effect on OCR / FCCP-uncoupled OCR (in words) (HepG2 cells [1]; [5]): acted as an uncoupler; Compound potency (IC50) LDH Release 1 h (HepG2 cells [2]; [6]): Inactive; Compound potency (IC50) LDH Release 5 h (HepG2 cells [2]; [7]): Inconclusive |
| Oc1ccc(/C=C/c2cc(O)cc(O)c2)cc1 [Resveratrol] | 100.5 ± 0.73 | 110.92 ± 0.36 |  |
| C[C@@H]1CC[C@@]2(OC1)O[C@H]1[C@@H](O)[C@H]3[C@@H]4CC[C@H]5C[C@@H](O[C@@H]6O[C@H](CO)[C@H](O[C@@H]7O[C@H](CO)[C@@H](O)[C@H](O[C@@H]8OC[C@@H](O)[C@H](O)[C@H]8O)[C@H]7O[C@@H]7O[C@H](CO)[C@H](O)[C@H](O[C@@H]8O[C@H](CO)[C@@H](O)[C@H](O)[C@H]8O)[C@H]7O)[C@H](O)[C@H]6O)[C@H](O)C[C@]5(C)[C@H]4CC[C@]3(C)[C@H]1[C@@H]2C [Digitonin] | 57.25 ± 6.4 | 54.89 ± 0.48 | Effect on OCR / FCCP-uncoupled OCR (in words) (HepG2 cells [1]; [5]): depressed both basal and FCCP uncoupled rates; IC50 (HepG2 cells [2]; [8]): 45.1 ± 8.43 µM; IC50 (HepG2 cells [2]; [9]): 45.1 ± 8.43 µM |
| COc1cc(/C=C/C(=O)CC(=O)/C=C/c2ccc(O)c(OC)c2)ccc1O [Curcumin] | 86 ± 3.54 | 94.85 ± 0.67 | Effect on OCR / FCCP-uncoupled OCR (in words) (HepG2 cells [1]; [5]): significantly suppressed the FCCP uncoupled rates |
| O=c1c(-c2ccc(O)cc2)coc2cc(O)cc(O)c12 [Genistein (4',5,7-Trihydroxyisoflavone), 4',5,7-Trihydroxyisoflavone] | 90.18 ± 3.05 | 105.21 ± 0.19 |  |
| Nc1cccc2c(N)cccc12 [1,5-Naphthalenediamine] | 104.68 ± 1.3 | 115.87 ± 0.7 |  |
| c1ccc(Nc2ccc3ccccc3c2)cc1 [N-Phenyl-2-naphthylamine] | 103.45 ± 2.35 | 120.42 ± 0.94 |  |
| O=C1C2CC=CCC2C(=O)N1SC(Cl)(Cl)Cl (stereo not shown) [Captan] | 110.37 ± 7.97 | 128.41 ± 0.77 |  |
| Clc1ccc(C(c2ccccc2Cl)C(Cl)Cl)cc1 (stereo not shown) [o,p'-DDD (Mitotane), 1,1-dichloro-2-(o-chlorophenyl)-2-(p-chlorophenyl) ethane, reference compound] | 102.84 ± 1.36 | 114.22 ± 0.42 |  |
| Cc1cc(O)c2c(c1)C(=O)c1cc(O)cc(O)c1C2=O [Emodin] | 235.59 ± 56.54 | 210.48 ± 1.83 | cytotoxicity at 40 h (HepG2 cells [3]): cytotoxic; Effect on OCR / FCCP-uncoupled OCR (in words) (HepG2 cells [1]; [5]): acted as uncouplers |
| CC(=O)[O][Hg][c]1ccccc1 [Phenyl mercuric acetate] | 67.6 ± 5.55 | 51.54 ± 0.26 | Effect on OCR / FCCP-uncoupled OCR (in words) (HepG2 cells [1]; [5]): depressed both basal and FCCP uncoupled rates; IC50 (HepG2 cells [2]; [10]): 68.1 ± 4.44 µM |
| O=c1cc(-c2ccc(O)cc2)oc2cc(O)cc(O)c12 [Apigenin] | 99.69 ± 1.13 | 107.51 ± 0.16 | cytotoxicity at 40 h (HepG2 cells [3]): the only exception; Effect on OCR / FCCP-uncoupled OCR (in words) (HepG2 cells [1]; [5]): did not affect the OCR or the FCCP-uncoupled OCR |
| Oc1ccc(Cl)cc1Cc1ccccc1 [o-Benzyl-p-chlorophenol] | 123.51 ± 12.67 | 126.12 ± 0.47 |  |
| O=C1C2(Cl)C3(Cl)C4(Cl)C(Cl)(Cl)C5(Cl)C3(Cl)C1(Cl)C5(Cl)C24Cl (stereo not shown) [Kepone] | 139.53 ± 5.8 | 140.71 ± 0.96 | IC50 (HepG2 cells [2]; [8]): 49.1 ± 12.3 µM; IC50 (HepG2 cells [2]; [9]): 58.4 ± 3.95 µM |
| Nc1ccc(O)cc1 [p-Aminophenol] | 100.52 ± 5.81 | 158.18 ± 3.31 |  |
| C[C@H]1CCCC(=O)CCC/C=C/c2cc(O)cc(O)c2C(=O)O1 [Zearalenone] | 77.68 ± 2.39 | 109.62 ± 0.57 | Effect on OCR / FCCP-uncoupled OCR (in words) (HepG2 cells [1]; [5]): depressed both basal and FCCP uncoupled rates |
| Cc1cc(O)c(C(C)(C)C)cc1Sc1cc(C(C)(C)C)c(O)cc1C [4,4-Thiobis(6-t-butyl-m-cresol)] | 106.32 ± 4 | 127.15 ± 1.52 | Compound potency (IC50) LDH Release 1 h (HepG2 cells [2]; [6]): Inactive; Compound potency (IC50) LDH Release 5 h (HepG2 cells [2]; [7]): Inconclusive |

| SMILES | Relative percentage OCR 30 Sec (HepG2 cells [1]) [%] | Relative percentage OCR 1 h (HepG2 cells [1]) [%] | also measured |
| --- | --- | --- | --- |
| Cc1cc2nc3c(=O)[nH]c(=O)nc-3n(C[C@H](O)[C@H](O)[C@H](O)CO)c2cc1C [Riboflavin] | 103.69 ± 0.37 | 115.15 ± 0.4 |  |
| N#CC(C#N)=NNc1ccc(OC(F)(F)F)cc1 [FCCP, Carbonyl cyanide 4-(trifluoromethoxy)phenylhydrazone, reference compound] |  |  | IC50 ([4]; HepG2, 1 h, read-out: mean IC50 of positive control, 1 h): 0.81 ± 0.2 µM; IC50 ([4]; HepG2, 5 h, read-out: mean IC50 of positive control, 5 h): 1.28 ± 0.32 µM |
| O=C(Nc1ccccc1)Nc1ccccc1 [Diphenylurea] | 97.02 ± 4.18 | 143.97 ± 1.85 |  |
| Oc1ccc(Cl)cc1Sc1cc(Cl)ccc1O [2,2'-Thiobis(4-chlorophenol)] | 273.19 ± 70.36 | 191.27 ± 0.92 |  |
| O=C1c2c(O)ccc([N+](=O)[O-])c2C(=O)c2c([N+](=O)[O-])ccc(O)c21 [1,8-Dihydroxy-4,5-dinitroanthraquinone] | 144.03 ± 7.3 | 150.09 ± 1.27 | cytotoxicity at 40 h (HepG2 cells [3]): cytotoxic; Effect on OCR / FCCP-uncoupled OCR (in words) (HepG2 cells [1]; [5]): acted as uncouplers |
| CC(=O)Oc1ccccc1C(=O)Nc1ncc([N+](=O)[O-])s1 [Nitazoxanide, reference compound] | 277.15 ± 15.64 | 199.34 ± 2.37 |  |
| CCCCCCCCCc1ccc(O)cc1 [p -n -Nonylphenol] | 116.61 ± 6.28 | 131.32 ± 0.61 |  |
| Oc1c(Cl)cc(Cl)c(Cl)c1Cc1c(O)c(Cl)cc(Cl)c1Cl [Hexachlorophene] | 201.72 ± 51.19 | 175.25 ± 1.35 |  |
| Oc1cc(Cl)c(Cl)c(Cl)c1 [3,4,5-Trichlorophenol] | 163.21 ± 18.34 | 173.49 ± 1.32 |  |
| O=C=Nc1ccc(Cl)c(Cl)c1 [3,4-Dichlorophenyl isocyanate] | 102.45 ± 10.76 | 236.03 ± 4.84 |  |
| CC(C)(c1ccccc1)c1ccc(O)cc1 [4-Cumylphenol] | 111.24 ± 4.51 | 121.31 ± 0.33 |  |
| CCCCCCCC[N+](CCCCCCCC)(CCCCCCCC)CCCCCCCC.[Br-] [tetra-N-Octylammonium bromide] | 122.56 ± 40.61 | 215.53 ± 1.14 | IC50 (HepG2 cells [2]; [10]): 35.4 ± 12.6 µM |
| COC(=O)Nc1cccc(OC(=O)Nc2cccc(C)c2)c1 [Phenmedipham] | 105.47 ± 2.71 | 130.87 ± 1.18 | Compound potency (IC50) LDH Release 1 h (HepG2 cells [2]; [6]): Inactive; Potency for cytotoxicity (LDH) compared with MMP decrease, 5 h (HepG2 cells [2]; HepG2, 5 h): more potent for cytotoxicity than for MMP disruption; Compound potency (IC50) LDH Release 5 h (HepG2 cells [2]; [7]): Inconclusive |
| CC1=C(/C=C/C(C)=C/C=C/C(C)=C/C(=O)Nc2ccc(O)cc2)C(C)(C)CCC1 [4-Hydroxyphenyl retinamide] | 96.31 ± 1.42 | 98.83 ± 0.42 | Effect on OCR / FCCP-uncoupled OCR (in words) (HepG2 cells [1]; [5]): significantly suppressed the FCCP uncoupled rates |
| CN(C)c1ccc(N=NS(=O)(=O)O)cc1 [Formulated fenaminosulf (Dexon), fenaminosulf] | 102.48 ± 0.9 | 110.45 ± 0.28 |  |
| Nc1ccc2c(c1)C(=O)c1ccccc1C2=O [2-Aminoanthraquinone] | 97.54 ± 0.63 | 106.44 ± 0.61 |  |
| CC/C(=C(/CC)c1ccc(O)cc1)c1ccc(O)cc1 [Diethylstilbestrol [DES], Diethylstilbestrol, reference compound] |  |  | Effect on OCR / FCCP-uncoupled OCR (in words) (HepG2 cells [1]): depressed both basal and FCCP uncoupled rates |
